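Method: 48-hour compound exposure of cells in 96-well plates, five concentrations, linear interpolation of endpoints. GI50 marks 50% less growth. TGI: concentration producing complete growth inhibition.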
Columns and labels:
Assay in all cases: inhibition of tumour cell growth, NCI panel, 48 h
786-0 renal = tested on: 786-0 renal
HOP-92 NSCLC = tested on: HOP-92 NSCLC
K-562 leukemia = tested on: K-562 leukemia
KM12 colon = tested on: KM12 colon
MALME-3M melanoma = tested on: MALME-3M melanoma
RPMI-8226 leukemia = tested on: RPMI-8226 leukemia
RXF 393 renal = tested on: RXF 393 renal
SK-MEL-2 melanoma = tested on: SK-MEL-2 melanoma
SN12C renal = tested on: SN12C renal
UACC-257 melanoma = tested on: UACC-257 melanoma

Structure (SMILES) | GI50 (786-0 renal) [µM] | TGI (786-0 renal) [µM] | GI50 (HOP-92 NSCLC) [µM] | TGI (HOP-92 NSCLC) [µM] | GI50 (K-562 leukemia) [µM] | TGI (K-562 leukemia) [µM] | GI50 (KM12 colon) [µM] | TGI (KM12 colon) [µM] | GI50 (MALME-3M melanoma) [µM] | TGI (MALME-3M melanoma) [µM] | GI50 (RPMI-8226 leukemia) [µM] | TGI (RPMI-8226 leukemia) [µM] | GI50 (RXF 393 renal) [µM] | TGI (RXF 393 renal) [µM] | GI50 (SK-MEL-2 melanoma) [µM] | TGI (SK-MEL-2 melanoma) [µM] | GI50 (SN12C renal) [µM] | TGI (SN12C renal) [µM] | GI50 (UACC-257 melanoma) [µM] | TGI (UACC-257 melanoma) [µM]
CC1=C(C(=O)Nc2ccc(F)c(Cl)c2)C(c2ccc(Cl)cc2)NC(=O)N1 (stereo not drawn) | 16.5 | 31.7 | 11.8 | 26.6 | 0.0173 | 21.3 | 24.2 | 52.1 | 16.8 | 38.5 | 13.6 | 36.3 | 17.6 | 37.2 | 19.1 | 35.3 | 17.8 | 32.2 | 19.4 | 38.6
O=C(N/C(=C\c1cc(Cl)ccc1Cl)c1nc2[nH]c(=S)[nH]c(=O)c2[nH]1)c1ccccc1 |  | 32.2 |  | > 75.1 |  | > 62.6 |  | 73.6 |  | > 100 |  | 42.7 |  | 41.5 |  | > 100 |  | > 66.6 |  | 
CSCCCN(CCCSC)CCCSC |  | > 100 |  |  |  | > 100 |  | > 100 |  |  |  |  |  |  |  |  |  | > 100 |  | > 100
COC(=O)[C@@]12C3=NO[C@]1(C(=O)OC)C(O[Si](C)(C)C(C)(C)C)[C@H]1OC(C)(C)O[C@H]1[C@@H]2C(OCc1ccccc1)CC3 (stereo partly drawn) |  | > 100 |  | 22.6 |  | > 100 |  | > 100 |  |  |  | > 100 |  |  |  | > 100 |  | > 100 |  | 
CCCCCCCC(=O)SCC/C=C/[C@@H]1CC(=O)NCc2cccc(n2)C2=N[C@@](C)(CS2)C(=O)N[C@@H](C(C)C)C(=O)N1 | 5.52 | > 33.3 | 0.481 | 9.31 | 0.658 | > 33.3 | 1.21 | > 33.3 | 0.142 | 2.37 | 0.639 | > 33.3 | 2.14 | 19.9 | 1.03 | 15.6 | 3.25 | > 33.3 |  | 
O=c1n(CC2CO2)c(=O)n(CC2CO2)n1CC1CO1 (stereo not drawn) | 4.78 | > 83.2 | 49.3 | > 100 | 51.4 | > 100 | 31.5 | > 100 | 64.1 | > 100 | 13.6 | > 57.8 |  |  | > 73.5 | > 100 | 9.03 | > 100 | 13 | 95.6
O=[S@@]1Nc2ccc(Br)cc2S1 |  | > 100 |  | > 100 |  | > 100 |  | > 100 |  | > 100 |  | > 100 |  |  |  | > 100 |  | > 100 |  | > 100
CC(=O)NC1=C(NCC(C)(C)C)C(=O)c2ccccc2C1=O |  | > 100 |  |  |  | > 100 |  | > 100 |  | > 100 |  |  |  | > 100 |  | > 100 |  | > 100 |  | > 100
O=C(CCl)N1c2ccccc2Oc2ccc3ccccc3c21 | 2.05 | 3.56 | 1.59 | 3.31 | 0.31 | 1.42 | 1.8 | 3.3 | 1.33 | 2.91 | 0.768 | 3.12 | 1.73 | 3.17 | 1.14 | 2.67 |  |  | 1.53 | 3.16
CC1(C)OC(=O)C(=Cc2ccc(O)cc2)C(=O)O1 |  | > 100 |  | > 100 |  | > 100 |  | > 100 |  | > 100 |  | > 100 |  |  |  | > 100 |  | > 100 |  | > 100
CC(C)=CCCc1c(C)ccc2c1C(=O)C(=O)C(C(C)C)=C2 |  | 7.07 |  | 6.43 |  | 8.08 |  | > 22 |  | 6.78 |  | 6.16 |  | 6.79 |  | 8.14 |  | > 22 |  | 
CCN(CC)CC(C(=O)Nc1c(C)cccc1C)/C(C)=N\NC(=O)C[N+](C)(C)C (stereo not drawn) |  | > 100 |  | > 100 |  | > 100 |  | > 100 |  | > 100 |  | > 100 |  | > 100 |  |  |  | > 100 |  | > 100
CC[C@@]12CCCN3CC[C@]4(c5cccc(OC)c5N(C(C)=O)[C@@H]4CC1)[C@H]32 |  | > 100 |  | > 100 |  |  |  | > 100 |  | > 100 |  | > 100 |  | > 100 |  | > 100 |  | > 100 |  | > 100
CC(=O)N1[C@H](C(=O)O)CS[C@H]1c1ccncc1 |  | > 100 |  | > 100 |  | > 100 |  | > 100 |  | > 100 |  | > 100 |  | > 100 |  |  |  | > 100 |  | > 100
CNC(=O)c1cc(Oc2ccc3nc(NC(=O)Nc4ccc(Cl)c(C(F)(F)F)c4)sc3c2)ccn1 | 1.79 | 3.4 | 1.15 | 3.24 |  |  | 3.41 | > 100 |  |  |  |  | 1.93 | 4.57 | 5.69 | 47 | 2.44 | > 100 | 3.37 | > 100
CCNC1C2(CCCCC2)NC(=O)C12CCCCC2 (stereo not drawn) |  | > 100 |  |  |  | > 100 |  | > 100 |  | > 100 |  | > 100 |  | > 100 |  | > 100 |  |  |  | > 100
COc1cc2cnc3c4cc(OC(C)C)c(OC)cc4ccc3c2cc1OC |  | > 100 |  |  |  | > 100 |  | > 100 |  | > 100 |  | > 100 |  |  |  | > 100 |  | > 100 |  | > 100
O=C(O)CCSC(=O)Nc1cccc(F)c1 |  | > 100 |  |  |  | > 100 |  | > 100 |  |  |  | > 100 |  |  |  | > 100 |  | > 100 |  | > 100
COc1ccc2c(c1)C1(C=N2)CCN(C(C)=O)CC1 |  | > 100 |  | > 100 |  | > 100 |  | > 100 |  | > 100 |  | > 100 |  |  |  | > 100 |  |  |  | > 100
Nc1ccc(C(=O)N/C(=C\c2ccc3c(c2)OCO3)c2nc3[nH]c(=S)[nH]c(=O)c3[nH]2)cc1 |  | > 100 |  | > 100 |  | > 100 |  | > 100 |  | > 100 |  |  |  | > 100 |  | > 100 |  | > 100 |  | 
O[C@H]1[C@H]2c3cc4c(cc3CN3CCC(=C[C@@H]1O)[C@H]23)OCO4 |  | > 34 |  |  |  | 12 |  | 22.4 |  | 10.7 |  | 5.03 |  | 2.6 |  | 2.12 |  | 9.5 |  | 
